This note sets out measurements from patent publication US9440952B2, “Compounds inhibiting leucine-rich repeat kinase enzyme activity” (Merck Sharp & Dohme Corp., priority 2013, dated 2016).

T1 sequence (Q5S007 970-2527 G2019S): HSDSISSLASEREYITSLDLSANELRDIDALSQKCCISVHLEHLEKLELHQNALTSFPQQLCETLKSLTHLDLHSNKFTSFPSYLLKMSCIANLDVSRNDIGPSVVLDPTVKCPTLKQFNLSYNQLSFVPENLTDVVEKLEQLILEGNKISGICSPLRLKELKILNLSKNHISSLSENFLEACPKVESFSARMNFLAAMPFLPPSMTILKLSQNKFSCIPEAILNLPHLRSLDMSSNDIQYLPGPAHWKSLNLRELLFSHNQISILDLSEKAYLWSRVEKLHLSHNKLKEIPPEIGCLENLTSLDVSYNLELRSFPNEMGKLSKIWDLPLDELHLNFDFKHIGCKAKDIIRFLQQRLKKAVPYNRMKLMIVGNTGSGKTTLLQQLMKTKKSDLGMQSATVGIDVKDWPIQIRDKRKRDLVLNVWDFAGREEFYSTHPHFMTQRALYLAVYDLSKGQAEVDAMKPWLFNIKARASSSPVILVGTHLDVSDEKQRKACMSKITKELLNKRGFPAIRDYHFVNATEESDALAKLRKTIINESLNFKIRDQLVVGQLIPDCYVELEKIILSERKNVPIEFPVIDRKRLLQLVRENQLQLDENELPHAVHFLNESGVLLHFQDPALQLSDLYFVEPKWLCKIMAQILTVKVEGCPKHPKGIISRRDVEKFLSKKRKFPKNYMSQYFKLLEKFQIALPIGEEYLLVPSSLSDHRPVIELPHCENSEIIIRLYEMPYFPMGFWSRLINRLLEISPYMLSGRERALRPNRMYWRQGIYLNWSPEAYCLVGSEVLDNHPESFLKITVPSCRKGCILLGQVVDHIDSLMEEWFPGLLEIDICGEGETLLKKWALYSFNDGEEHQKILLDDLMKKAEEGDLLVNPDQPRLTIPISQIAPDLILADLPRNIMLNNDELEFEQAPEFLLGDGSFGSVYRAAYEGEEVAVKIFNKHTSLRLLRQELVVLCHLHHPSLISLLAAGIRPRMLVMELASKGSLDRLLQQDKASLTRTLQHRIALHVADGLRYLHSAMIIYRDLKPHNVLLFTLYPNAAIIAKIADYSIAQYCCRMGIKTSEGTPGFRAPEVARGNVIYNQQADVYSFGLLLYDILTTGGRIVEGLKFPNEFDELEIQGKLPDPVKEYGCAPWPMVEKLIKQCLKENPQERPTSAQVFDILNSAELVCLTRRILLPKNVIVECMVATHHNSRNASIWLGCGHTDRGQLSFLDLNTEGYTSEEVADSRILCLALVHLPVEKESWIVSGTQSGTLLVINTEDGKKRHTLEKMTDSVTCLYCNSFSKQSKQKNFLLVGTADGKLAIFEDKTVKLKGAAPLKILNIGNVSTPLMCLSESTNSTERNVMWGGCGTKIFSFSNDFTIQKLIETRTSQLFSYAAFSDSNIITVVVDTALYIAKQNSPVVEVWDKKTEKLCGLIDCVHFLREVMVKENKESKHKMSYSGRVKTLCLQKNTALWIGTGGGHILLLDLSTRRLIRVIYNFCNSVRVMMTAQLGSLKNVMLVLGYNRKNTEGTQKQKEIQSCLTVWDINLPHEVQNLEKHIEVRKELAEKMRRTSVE

One test concerns the target T1, LRRK2(G2019S mutation, GST-LRRK2(amino acids 970-2527)) (Homo sapiens, UniProt Q5S007, G2019S).
T1 construct: GST-LRRK2(amino acids 970-2527); GST (N); purchased Life Technologies Corporation
Nature of the test: LRRK2 Km ATP LanthaScreen Assay. The test is classed as biochemical. The conditions noted are these: Km ATP LanthaScreen Assay; LRRK2 G2019S; mean IC50 values; Examples 185-215; read-out: LRRK2 IC5). The method in brief:
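IC50 values are means of several runs in the Km-ATP LanthaScreen format, analysed by curve fitting of the LanthaScreen read-out.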
Take `CC(C)Oc1ccc2[nH]nc(-c3ccnc(N4CCN(c5ccccn5)CC4)c3)c2c1` [Example 200]: the IC50 came to 10.9 nM.

Still in this test, the particulars now being: Km ATP LanthaScreen Assay; LRRK2 G2019S; mean IC50 values; read-out: LRRK2 IC50.
Turning to `c1ccc2c(-c3ccnc(NCCN4CCOCC4)c3)n[nH]c2c1` [Example 73], the IC50 was found to be 35 nM.

In the case of `c1ccc2c(-c3ccnc(N4CCC(c5ccncc5)CC4)c3)n[nH]c2c1` [Example 16], the IC50 is 186 nM.

As for `COC1CCN(c2cc(-c3n[nH]c4ccc(-c5ccnc(O)c5)cc34)ccn2)CC1` [Example 122], the IC50 stood at 1.1 nM. On the same count and under the same terms, the figure for `c1cc(-c2n[nH]c3ccc(CN4CCCCC4)cc23)cc(N2CCOCC2)n1` [Example 88] is 164 nM; for `CCOc1ccc2[nH]nc(-c3ccnc(N4C5CCCC4CC5)c3)c2c1` [Example 228] it is 48.9 nM. For the molecule `CCOc1ccc2[nH]nc(-c3ccnc(N4CC[C@@H](OC)C4)c3)c2c1` [Example 227], the IC50 was determined as 11.3 nM. Take `O=C1CCC(CNc2cc(-c3n[nH]c4ccccc34)ccn2)N1` (stereo not shown) [Example 44]: the IC50 is 26 nM. As for `OC1(c2ccccn2)CCN(c2cc(-c3n[nH]c4ccccc34)ccn2)CC1` [Example 23], the IC50 amounted to 20 nM. Regarding `CC(C)Oc1ccc2[nH]nc(-c3ccnc(N4CC(n5cnnc5)C4)c3)c2c1` [Example 180], the IC50 turned out to be 10.2 nM.

For `CC(C)Oc1ccc2[nH]nc(-c3ccnc(NCCc4ccccn4)c3)c2c1` [Example 133], the IC50 was determined as 0.8 nM.

With `OC1CCN(c2cc(-c3n[nH]c4ccccc34)ccn2)CC1` [Example 10], the IC50 was found to be 24 nM. For `CN1CCCC(CN(C)c2cc(-c3n[nH]c4ccccc34)ccn2)C1` (stereo not shown) [Example 32], the IC50 worked out at 75 nM. For `COCCN(C)c1cc(-c2n[nH]c3ccc(OC(C)C)cc23)ccn1` [Example 136], the IC50 stood at 4.9 nM.

For `CC(C)Oc1ccc2[nH]nc(-c3ccnc(NC(=O)CC4CC4)c3)c2c1` [Example 152], the IC50 is 35.8 nM. `Cc1nc2c(o1)CCN(c1cc(-c3n[nH]c4ccc(OC(F)(F)F)cc34)ccn1)C2` [Example 251]: the IC50 turned out to be 431 nM.

For the molecule `CCNc1cc(-c2n[nH]c3ccc(Nc4cccc(S(C)(=O)=O)c4)cc23)ccn1` [Example 111], the IC50 was found to be 35 nM.

For `FC1(F)CCN(c2cc(-c3n[nH]c4ccc(OC(F)(F)F)cc34)ccn2)C1` [Example 245], the IC50 came out at 1490 nM. For the molecule `CN(Cc1ccc2[nH]nc(-c3ccnc(N4CCOCC4)c3)c2c1)Cc1ccco1` [Example 94], the IC50 was found to be 13 nM. As for `CN(C)CC1(O)CCN(c2cc(-c3n[nH]c4ccccc34)ccn2)CC1` [Example 56], the IC50 was determined as 25 nM. As to `CC(C)Oc1ccc2[nH]nc(-c3ccnc(NC(=O)c4ccc5c(c4)C(=O)NC5)c3)c2c1` [Example 145], the IC50 worked out at 52 nM. For the molecule `FC(F)(F)CN1CCN(c2cc(-c3n[nH]c4ccc(OC(F)(F)F)cc34)ccn2)CC1` [Example 237], the IC50 was 279 nM. Consider `CC(C)Oc1ccc2[nH]nc(-c3ccnc(NC(=O)CC4CCC(=O)N4)c3)c2c1` (stereo not shown) [Example 165], for which the IC50 is 23.4 nM. On the same count and under the same terms, the figure for `N#CC1(c2ccccn2)CCN(c2cc(-c3n[nH]c4ccccc34)ccn2)CC1` [Example 17] is 16 nM; for `FC(F)(F)Oc1ccc2[nH]nc(-c3ccnc(N4CCc5nc(C6CC6)oc5C4)c3)c2c1` [Example 252] it is 700 nM; for `COC1CN(c2cc(-c3n[nH]c4ccccc34)ccn2)C1` [Example 67] it is 31 nM. Turning to `CC(C)Oc1ccc2[nH]nc(-c3ccnc(NCCO)c3)c2c1` [Example 140], the IC50 amounted to 7.3 nM. For `CCN(CC)CCNCc1ccc2[nH]nc(-c3ccnc(N4CCOCC4)c3)c2c1` [Example 95], the IC50 amounted to 273 nM. `CN1CCC(O)(CNc2cc(-c3n[nH]c4ccccc34)ccn2)CC1` [Example 47]: the IC50 stood at 63 nM. Turning to `CO[C@@H]1CCN(c2cc(-c3n[nH]c4ccc(OC(F)(F)F)cc34)ccn2)C1` [Example 250], the IC50 worked out at 854 nM.

Staying with this test, now noted: Km ATP LanthaScreen; mean IC50 of several tests; read-out: LRRK2 IC50.
In the case of `Cn1cc(-c2ccc3[nH]nc(-c4ccnc(N5C[C@H](F)[C@@H](F)C5)c4)c3c2)cn1` [Example 271], the IC50 came out at 2.2 nM.

For `CC(C)Oc1ccc2[nH]nc(-c3ccnc(N4CC(C(=O)O)C4)c3)c2c1` [Example 284], the IC50 turned out to be 2.4 nM. With `CC(C)Oc1ccc2[nH]nc(-c3ccnc(N4CC5CCC(C4)O5)c3)c2c1` [Example 280], the IC50 amounted to 5 nM.

`Fc1cc2[nH]nc(-c3ccnc(N4CCOCC4)c3)c2cc1-c1ccn[nH]1` [Example 351]: the IC50 was 1.1 nM. As to `CCOc1ccc2[nH]nc(-c3ccnc(N4CCN(S(C)(=O)=O)CC4)c3)c2c1` [Example 360], the IC50 was less than 0.6 nM.

With `Cc1ccc2c(-c3ccnc(N4CCOCC4)c3)n[nH]c2c1` [Example 104], the IC50 stood at 35 nM. Take `Cc1cnc(-c2ccc3[nH]nc(-c4ccnc(N5CCOCC5)c4)c3c2)nc1` [Example 338]: the IC50 amounted to 8.9 nM.

`c1cc(-c2n[nH]c3ccc(-c4cncs4)cc23)cc(N2CCOCC2)n1` [Example 327]: the IC50 is less than 0.6 nM.

As to `Cn1cc(-c2ccc3[nH]nc(-c4ccnc(N5CC(F)(F)C5)c4)c3c2)cn1` [Example 274], the IC50 was determined as 4.2 nM.

As for `c1cc(-c2ccc3[nH]nc(-c4ccnc(N5CCOCC5)c4)c3c2)[nH]n1` [Example 346], the IC50 was less than 0.6 nM. Still for that read-out and setting: for `CCOc1ccc2[nH]nc(-c3ccnc(N4CCC(OC)CC4)c3)c2c1` [Example 296] the value was 7.5 nM; for `CCCOc1ccc2[nH]nc(-c3ccnc(N4CCOCC4)c3)c2c1` [Example 301], 12 nM; for `c1cnnc(-c2ccc3[nH]nc(-c4ccnc(N5CCOCC5)c4)c3c2)c1` [Example 326], 6.4 nM. On to `CC(C)Oc1ccc2[nH]nc(-c3ccnc(NS(=O)(=O)c4ccc5c(c4)N(C)C(=O)CO5)c3)c2c1` [Example 262], for which the IC50 worked out at 43.4 nM. Same read-out and setting: the figure for `Cn1cc(-c2ccc3[nH]nc(-c4ccnc(N5CC(O)C5)c4)c3c2)cn1` [Example 375] is less than 0.6 nM; for `O=C1CCN(c2cc(-c3n[nH]c4ccccc34)ccn2)CC1` [Example 76] it is 45 nM; for `Oc1nccnc1-c1ccc2[nH]nc(-c3ccnc(N4CCOCC4)c3)c2c1` [Example 389] it is less than 0.6 nM. Consider `COC1CCN(c2cc(-c3n[nH]c4ccc(OC(C)C)cc34)ccn2)CC1` [Example 290], for which the IC50 was determined as 6 nM.

Turning to `Cn1cnc(-c2ccc3[nH]nc(-c4ccnc(N5CCOCC5)c4)c3c2)c1` [Example 343], the IC50 is 4.9 nM. As for `COc1ccncc1-c1cc2c(-c3ccnc(N4CCOCC4)c3)n[nH]c2cc1F` [Example 323], the IC50 was less than 0.6 nM.

Consider `FC(F)n1cc(-c2ccc3[nH]nc(-c4ccnc(N5CCOCC5)c4)c3c2)cn1` [Example 396], for which the IC50 was determined as 2.8 nM.

For the molecule `Cc1ccnc(-c2ccc3[nH]nc(-c4ccnc(N5CCOCC5)c4)c3c2)n1` [Example 336], the IC50 was 33 nM.
